Laboratory results from patent US20090124651A1, “CATECHOLAMINE DERIVATIVES AND PRODRUGS THEREOF” (H. LUNDBECK A/S, priority 2007, published 2009).

Legend:
Parkinson's disease = details: PD patients, intravenous (IV); cited from earlier work
[1] = man, oral dosing; cited from earlier work
motility deficits = assay: Superiority model: mouse model of severe dopamine depletion; format: in vivo
Description: Both Apomorphine and L-DOPA stimulate D1 and D2-like dopamine receptors.

Row | SMILES | antiparkinson efficacy (Parkinson's disease) | oral bioavailability [1] [%] | reversal of motility deficits / restoration of locomotion (motility deficits)
1 | CCCc1cc2c(s1)CN[C@@H]1CCc3cc(OC(C)=O)c(OC(C)=O)cc3[C@@H]21 [Adrogolide] | comparable to that of L-DOPA | ~4 | –
2 | CN1CCc2cccc3c2[C@H]1Cc1ccc(O)c(O)c1-3 [Apomorphine] | – | – | able to reverse motility deficits
3 | N[C@@H](Cc1ccc(O)c(O)c1)C(=O)O [L-DOPA, (levo)-3,4-dihydroxy phenylalanine] | – | – | able to reverse motility deficits
